# Reference: patent US20160235102A1, “SWEETENER COMPOSITION, SWEETENER PRODUCTS, AND METHODS OF SWEETENING” (ALMENDRA AMERICAS, LLC, priority 2013, published 2016)
# System: trained expert panelists
# Assay: Sensory formulation study ballot: taste attributes rated on 0-15 scales by trained expert panelists
# Assay type: in vivo, human
# Conditions: 0-15 scale, rating defined for panel calibration
# Text: Tongue numbing can also manifest itself as “tongue tingling”. These non-sugar-like characteristics appear inter-related in the sense that formulation as well as temperature changes affect the perception of several of them. Another taste characteristic of steviol glycosides, particularly those with relatively low levels of REB A, is soapiness, a characteristic that results from the surfactant portion of the molecule. To quantify all of these sensory effects by existing methods would require an expert sensory panel and at least 4 different sensory tests (i.e., C/R Function Determination, Flavor Profile Analysis, Temporal Profile Analysis and Adaptation Profile Analysis). However, to address a need for rapid screening of HP sweetener formulations, Prakash et al., described a scaling technique to quantify all of these sensory percepts in a single test (reference shown below under the table). An improvement of this methodology is described below.
# Prior to the evaluation of test samples, all panelists must first calibrate themselves on Sucrose and Reference Samples (e.g., REB A) to ensure that they are able to appropriately scale taste attributes of interest. These Reference Samples are to be available in ample quantities for all experimental sessions. The Sucrose Reference is 10.0% sucrose acidified with 0.1% citric acid. For illustration purposes, an example of a Reference Sample can be a REB A Reference Sample that has 500 PPM REB A in the same system for general formula optimization studies.
# Take a ca. 15 mL sample of the Sucrose Reference into the mouth swishing it around vigorously and note all attributes of the sensory experience. After ca. 10 sec, expectorate the sample and immediately rinse vigorously with ca. 15 mL of water, expectorating the rinse water. Over the next 2 minutes, while minimizing tongue movement in the mouth, pay attention to any rebound or intensification in perceived sweetness, bitterness, or numbing/tingling sensation. The intensity of the attribute perceived at 2 minutes is an estimate of its lingering tendency. Upon completion of calibration with the Sucrose Reference, calibration with the REB A Reference is carried out in the same way. The attribute ratings for the Sucrose and REB A References, all on 0-15 scales, are defined as follows: […]
# After completion of reference sample calibrations, as well as in follow up of all sample tests, rinse the mouth vigorously with ca. 15 mL portions of the Sucrose Reference solution and two ca. 15 mL portions of water in effort to get the sensory system back to baseline.
# After calibration with the Sucrose Reference and REB A Reference, evaluate all experimental samples by the same protocol, always using the Sucrose Reference and water rinse procedure and ensuring adequate time for the sensory system to return to normal before proceeding with subsequent samples
# Taste procedure: the beverages were evaluated in triplicate using the sensory methodology described herein by four trained expert panelists and mean values were used for data analysis.
# [1] = 2 minutes after expectoration and rinse, 10.0% sucrose or 500 PPM REB A in 0.1% citric acid
# [2] = Sucrose Reference 10.0% sucrose, REB A Reference 500 PPM, both in 0.1% citric acid
smiles,measurement,setting,value
"C=C1C[C@@]23CC[C@H]4[C@@](C)(CCC[C@@]4(C)C(=O)O[C@@H]4O[C@H](CO)[C@@H](O)[C@H](O)[C@H]4O)[C@@H]2CC[C@]1(O[C@@H]1O[C@H](CO)[C@@H](O)[C@H](O[C@@H]2O[C@H](CO)[C@@H](O)[C@H](O)[C@H]2O)[C@H]1O[C@@H]1O[C@H](CO)[C@@H](O)[C@H](O)[C@H]1O)C3 [REB A100 Reference, rebaudioside A]",Bitterness Intensity @ 2 Min (Bitter2),[1],2
same,Numbing/Tingling Sensation @ 2 Min (Numb/Ting2),[1],2
same,Sweetness Intensity @ 2 Min (Sweet2),[1],3
same,Astringency Intensity (Astring),[2],0
same,Bitterness Intensity (IB),[2],3
same,Mouthfeel (Mfeel),[2],0
same,Numbing/Tingling Sensation (Numb/Ting),[2],0
same,Soapiness (Soap),[2],1
same,Sweetness Intensity Initial (Sweetness),[2],10
same,Sweetness Onset/Appearance Time (Onset),[2],3
